One assay relates to Luciferase. In words: Luciferase alone control (PGL3 vector). The assay is classed as cell-based. The settings on record: HeLa cells; result in words. The method, then: The percentage of signal relative to the proteasome inhibitor MG132 is shown. […] A Western blot is shown of endogenous Wee1 or Skp1 (loading control) of HeLa cells incubated with 5 μM of indicated compounds for 24 hours. […] The 0 time point was set to 100%. […] The extent of degradation was measured as in FIG. D.
5 μM of indicated compounds were incubated with K328M-Wee1-Luciferase or Luciferase expressing HeLa cells and the extent of stabilization measured after adding Brite-lite. MG132 was used as a positive control.
(§1) Similar assays have previously been described; PubChem AID 1807.

For another assay, the system named is K328M-Wee1-luciferase. In words: Wee1-luciferase assay (stabilization of K328M-Wee1-luciferase). It is filed as cell-based. The settings on record: HeLa cells; result in words.
Source text: Steady-state level of K328M-Wee1-Luciferase (K328M-Wee1-Luc) was divided by Luciferase level (Luc) and plotted.
as §1

The test system of assay [1] is cerebellar granule cell progenitors (GCPs). In words: In vitro proliferation of cerebellar granule cell progenitors (3H-thymidine uptake). It is filed as cell-based, mouse. The settings on record: 24 hours; result in words. The method, then:
GCPs were incubated with DMSO, 5 μM D4476 (known CK1δ and CK1ε inhibitor), or 50 μM D4476 and processed for ^3H-thymidine incorporation after 24 hours. A representative experiment performed in triplicate is shown.

The next assay has as its target T1, FLT3 (Homo sapiens, UniProt P36888).
T1 construct: Reaction Biology Corporation (contract assay)
T1 sequence (P36888 27-993): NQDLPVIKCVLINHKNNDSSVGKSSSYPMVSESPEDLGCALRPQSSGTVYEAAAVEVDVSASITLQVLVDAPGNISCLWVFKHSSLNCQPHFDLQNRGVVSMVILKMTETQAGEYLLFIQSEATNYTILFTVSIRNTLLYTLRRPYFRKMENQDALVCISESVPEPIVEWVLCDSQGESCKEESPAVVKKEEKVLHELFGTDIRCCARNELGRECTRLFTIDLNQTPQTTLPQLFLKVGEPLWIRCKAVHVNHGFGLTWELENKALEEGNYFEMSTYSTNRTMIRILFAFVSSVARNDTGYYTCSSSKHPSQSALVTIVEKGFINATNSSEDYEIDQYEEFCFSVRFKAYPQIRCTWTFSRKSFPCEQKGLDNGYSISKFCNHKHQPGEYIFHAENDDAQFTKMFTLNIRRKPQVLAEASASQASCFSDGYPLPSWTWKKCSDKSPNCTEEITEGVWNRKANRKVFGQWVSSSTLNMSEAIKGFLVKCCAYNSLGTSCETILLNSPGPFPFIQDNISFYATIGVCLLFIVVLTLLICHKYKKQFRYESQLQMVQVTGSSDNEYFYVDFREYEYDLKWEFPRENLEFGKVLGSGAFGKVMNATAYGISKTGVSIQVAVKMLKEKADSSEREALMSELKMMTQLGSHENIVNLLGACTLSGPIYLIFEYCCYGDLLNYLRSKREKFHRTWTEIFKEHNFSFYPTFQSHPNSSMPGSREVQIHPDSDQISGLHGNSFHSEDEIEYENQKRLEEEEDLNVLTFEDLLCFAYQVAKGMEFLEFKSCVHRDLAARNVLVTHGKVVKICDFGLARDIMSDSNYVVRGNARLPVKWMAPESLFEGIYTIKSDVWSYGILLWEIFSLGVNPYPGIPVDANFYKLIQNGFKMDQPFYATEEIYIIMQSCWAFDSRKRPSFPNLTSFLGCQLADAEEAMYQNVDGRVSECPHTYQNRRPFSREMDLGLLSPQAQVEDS
Kind of assay: In vitro kinase assay, FLT3 (Reaction Biology Corporation). The settings on record: determined by Reaction Biology Corporation; read-out: IC50 FLT3. It is filed as biochemical. As to the method: (§2) Compounds were tested in 10-dose IC50 mode with 3-fold serial dilution starting at 50 μM. […] Reactions were carried out at 10 μM ATP. Average and standard deviations of reactions carried out in triplicate are shown.
(§3) In vitro kinase assay to detect CK1 or FLT3 activity: CK1 and FLT3 assays as well as complete kinase profile of 296 kinases was performed by Reaction Biology Corporation. For FLT3 20 μM final Abltide was used, sequence: [[…]]. For CK1 (all isoforms) 20 μM CK1 tide was used, sequence: [KRRRAL[pS]VASLPGL] in a standard kinase assay with ^32P-ATP and purified kinase. Incorporation of ^32P-ATP into the peptide was measured after a filter-binding assay. In-house CK1d inhibition assays were performed using a standard homogenous time-resolved fluorescence resonance energy transfer (TR-FRET) format in 50 mM Hepes, pH 7.0, 2.5 mM MgCl2, 0.1 mg/ml bovine serum albumin, 1 mM DL-dithiothreitol, 0.01% Triton X-100 (all from Sigma-Aldrich). Briefly, the CK1δ substrate (DEKTDDE, containing CK1 consensus sequence; 4 μL of a 500 nM stock solution) is labeled with a small Ulight acceptor dye (PerkinElmer). In the presence of 10 μL of 10 nM CK1δ, the Ulight peptide is phosphorylated at a single amino acid that is specifically recognized by a europium chelate (Eu)-labeled phosphospecific antibody. Assays were performed in the presence of 2 μL of compound at different (measured) concentrations, and reactions were stopped by adding 10 μL of 4 nM Eu-anti-p-Topo-IIa (PerkinElmer) in Lance Detection Buffer (Perkin Elmer). Upon excitation of the Eu-labeled antibody, energy is transferred to the acceptor dye resulting in the emission of detected light at 665 nm.

A further assay relates to MDA-MB-468 (breast). Kind of assay: NCI Dose Growth Inhibition assay (NCI-60). The assay is classed as cell-based. The settings on record: Homo sapiens; MDA-MB-468 (breast); read-out: GI50. As to the method:
(§4) Table 3, below, illustrates the activity of some of the compounds of the present invention in the National Cancer Institute's Dose Growth Inhibition assay against several human tumor cell lines selected from the NCI-60 panel.
(§5) NCI-60 Cancer Cell Line Screening was performed by the National Cancer Institute, using the procedures described on their website (http://dtp.nci.nih.gov/branches/btb/ivelsp.html)

The test system of another assay is UACC-62 (melanoma). Kind of assay: NCI Dose Growth Inhibition assay (NCI-60). It is filed as cell-based. The settings on record: Homo sapiens; UACC-62 (melanoma); read-out: GI50. The method, then: as §4, §5
The next assay relates to COLO 205 (colon). Kind of assay: NCI Dose Growth Inhibition assay (NCI-60). It is filed as cell-based. The settings on record: Homo sapiens; COLO 205 (colon); read-out: GI50. The method, then:
as §4, §5

The test system of another assay is RXF393 (renal). Kind of assay: NCI Dose Growth Inhibition assay (NCI-60). The assay is classed as cell-based. The settings on record: Homo sapiens, RXF 393; RXF393 (renal); read-out: GI50. As to the method: as §4, §5
Another assay has as its system A498 (renal). In words: NCI Dose Growth Inhibition assay (NCI-60). The assay is classed as cell-based. The settings on record: Homo sapiens; A498 (renal); read-out: GI50. The method, then:
as §4, §5

Another assay has as its system SNB-75 (CNS). In words: NCI Dose Growth Inhibition assay (NCI-60). It is filed as cell-based. The settings on record: Homo sapiens; SNB-75 (CNS); read-out: GI50. As to the method:
as §4, §5

Another assay has as its target CK1δ (Homo sapiens, UniProt P48730). In words: In vitro kinase assay, CK1d, 32P-ATP filter binding (Reaction Biology Corporation). It is filed as biochemical. The settings on record: footnote a: determined by Reaction Biology Corporation; read-out: IC50 CK1d. As to the method:
as §2, §3

The results in this text go back to patent US9493464B2, “Wee1 degradation inhibitors” (The Scripps Research Institute, priority 2012, dated 2016).

CK1δ, sequence (P48730 whole entry): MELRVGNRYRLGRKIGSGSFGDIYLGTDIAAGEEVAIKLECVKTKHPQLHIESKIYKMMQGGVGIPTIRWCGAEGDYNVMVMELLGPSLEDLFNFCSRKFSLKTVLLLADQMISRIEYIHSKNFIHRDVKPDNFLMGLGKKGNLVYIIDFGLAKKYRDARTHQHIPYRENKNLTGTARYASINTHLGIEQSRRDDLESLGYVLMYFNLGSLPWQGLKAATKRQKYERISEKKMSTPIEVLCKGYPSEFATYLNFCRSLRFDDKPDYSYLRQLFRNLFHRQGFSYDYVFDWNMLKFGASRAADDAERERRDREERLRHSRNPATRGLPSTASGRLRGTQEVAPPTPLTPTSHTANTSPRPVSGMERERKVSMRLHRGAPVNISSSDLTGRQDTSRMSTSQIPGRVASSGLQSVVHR

On to `NC(=O)c1ccc(-c2nc(-c3ccc4c(c3)OCCO4)c(-c3ccccn3)[nH]2)cc1` [Compound D4476, reference compound], for which the Luciferase levels entry with Luciferase is recorded as “does not affect Luciferase levels”. For the same molecule, in the assay on K328M-Wee1-luciferase, the “stabilization of K328M-Wee1-luciferase” value is “stabilizes K328M-Wee1-luciferase”. Moreover, in assay [1], the “inhibition of GCP proliferation (3H-thymidine)” value is “inhibited GCP proliferation”.

Turning to `COc1ccc2[nH]c(CNc3nc(N4CCNCC4)nc4c3ncn4-c3ccoc3)nc2c1` [SR-2891], the IC50 on FLT3 stood at 0.782 µM; on CK1δ it was 0.011 µM. Further, the GI50 in the assay with MDA-MB-468 (breast) is under 0.01 µM; with UACC-62 (melanoma) it was 0.174 µM; with COLO 205 (colon) it was 0.03 µM; in the assay on RXF393 (renal) it was 0.049 µM; with A498 (renal) it was 0.321 µM; with SNB-75 (CNS) it was 0.024 µM.

What is called IC50 is the concentration that gives 50% inhibition. The term GI50 denotes the concentration at which growth is held to half of that of the control.
